# In patent US7276531B2, “G-lactam derivatives as prostaglandin agonists” (Applied Research Systems ARS Holding N.V., priority 2003, dated 2007):
# Columns and labels:
# [1] = test system: mature mouse ovulation induction model; assay: In vivo ovulation assay (mature mouse ovulation induction model)
# Method: Ovulation induction activity of compounds of the invention was tested in a mature mouse ovulation induction model.
# Mature 10-week-old CD-mice were used. Reagents were prepared as follows: PMSG (pregnant mare serum gonadotropin) (Calbiochem, cat #367222) and hCG (Serono) are diluted in PBS. PGE2 (Cayman, Ann Arbor Mich.) was dissolved in ethanol and diluted with 0.154 M […] Buffer (pH 8.0) to final concentration of ethanol of less than 3 percent. A compound of the invention (based on solubility) was pre-dissolved in ethanol, DMSO or other reagents. The compound of the invention was then diluted with saline or other diluents such as PBS or NP3S (5% N-methyl-pyrrolidinone/30% PEG400/25% PEG200/20% Propylene Glycol in saline). PMSG stimulates ovarian follicular development. After PMSG stimulation, the mature follicules can be stimulated to rupture and release oocytes by an ovulation trigger, such as hCG or a compound of the invention.
# The following test protocol is employed for the test animals (typically 5 animals per test group). • Day 1: Inject 5 IU PMSG in 200 μl PBS (i.p. 15:00 PM) • Day 2: No administration • Day 3: Injection of ovulation trigger hCG (i.p.) or hCG replacement (PGE2 or compound of the invention, s.c., i.v. or oral route), 15:00 PM • Day 4: Eighteen hours after injections of the ovulation triggers, animals were sacrificed by CO2 asphyxiation and abdominal cavities were opened using fine scissors and forceps. Uterus, oviducts and ovaries were collected and placed in pre-labeled dishes containing phosphate buffered saline (PBS). The collected tissues were transferred to the laboratory and intact oviduct carefully dissected out from uterus and ovary under the dissection microscope. The dissected oviducts were placed on the glass microscopic slide and covered with another slide. Two slides were taped on two edges. The numbers of ovulated ova in the oviducts were counted using upright microscope with 4× objective and recorded. […]
# LPS-induced TNFα release = assay: In vivo inhibition of LPS-induced TNFα release in mice; settings: LPS 0.3 mg/kg i.p.
# Method: The anti-inflammatory activity of compounds of the invention may be assessed after a LPS challenge using the following protocol:
# Eight weeks old C3H/H mice (IFFA-CREDO, L'arbresle, France) receive an oral treatment with compounds of the invention 6 different doses (0.001, 0.01, 0.1, 1 or 3 and 10 mg/kg in 0.5% CMC/0.25% tween-20). Six mice are used by group. Fifteen minutes later, endotoxins (O111:B4 Sigma, 0.3 mg/kg) are intraperitoneally injected. Heparinized whole blood is collected by decapitation. TNFα level is determined in plasma by ELISA (R & D Systems, Abdingdon, UK). Control animals receive 0.5% CMC/0.25% tween-20 (10 ml/kg) as vehicle. Data obtained from experiments are expressed as the mean±SEM and analysed using one-way analysis of variance (ANOVA) followed by Dunnett's t-test.
# [2] = test system: aspirin-induced gastric ulceration; assay: In vivo inhibition of aspirin-induced gastric ulceration; settings: rats
# From the text: The activity of compounds of the invention as protective agents against gastric ulceration can be assayed as follows and as described in Guth et al., 1979. […]
# Four hours later, animals are sacrificed and gastric ulceration is scored for degree of hemorrhage and severity of ulcerative lesions as follows: 0=no hyperemia or bleeding, 1=hyperaemia, 2=slight spot bleeding, 3=hyperemia plus slight spot bleeding, 4=hyperemia plus spot bleeding within entire stomach. Reduction of concurrent control score values by 50 percent or more (≧50%) is considered significant.
# [3] = test system: Dextran Sodium Sulfate-induced colitis; assay: In vivo inhibition of Dextran Sodium Sulfate-induced colitis; settings: 0.1 mg/kg p.o. daily at days 3, 4, 5 and 6, DSS 4% mice
# From the text: The anti-inflammatory activity of compounds of the invention in colitis can be assayed as follows.
# Within 6-10 days after ingesting Dextran Sodium Sulfate (DSS) mice show sign of diarrhea, rectal bleeding and weight loss and colonic mucosal lesions include multiple erosion, ulceration, and marked inflammatory cell infiltration.
# Ulcerative colitis (UC) was induced in female mice (Balb/c, 20-22 g, Elevage Janvier) by Dextran Sodium Sulfate (DSS 4%) administered in drinking water. The mice had free access to DSS during 5 days.
# The compounds of the invention were solubilized in […] and administered by gavage at days 3, 4, 5 and 6 after the induction of the UC.
# The “treated group” wherein the animals have free access to DDS and are treated each day with compounds of the invention.
# The “Dextran 4%” group wherein the animals have free access to DDS 4% and 0.5% CMC/O0.25% tween (vehicle) and are not treated.
# • The body weight was determined daily. • The severity of the UC was assessed by a clinical score estimating the constituency of the stool (0=firm, 1=loose, 2=diarrhea) and the presence of blood (0=no blood, 1=occult blood, 2=gross rectal bleeding). • Seven days after the induction of the disease, the animals were sacrificed. The length and the weight of the colon were determined and the ratio Length/Weight/100 g body weight was calculated.
# The percentages of inhibition of weight loss, of clinical scores and of increase in the ratio colon length/weight, are calculated as follows: % inhibition=(1−(“value for treated group”−“value for control group”/”value for Dextran 4% group”−“value for control group))*100.
# The percentages of inhibition are calculated for each days 5, 6 and 7 for each parameter.
smiles,measurement,setting,value
"CCCC/C(C)=C/C=C\[C@H]1CCC(=O)N1CCc1ccc(C(=O)O)cc1 [Example 3, 4-(2-{(2R)-2-[(1Z,3E)-4-methylocta-1,3-dienyl]-5-oxopyrrolidin-1-yl}ethyl)benzoic acid]",ED50,"[1]; Mus musculus, po, read-out: calculated ED50 (dose of drug which produces 50% of its effect), ovulation, p.o. administration route, mice",1 mg/kg
same,number of ova released (average),"[1]; oral administration, 20 mg/kg, mature mice",20
same,% of Inhibition of TNF Release Mean ± SEM,LPS-induced TNFα release; oral dose 0.001 mg/kg,41 ± 5%
same,% of Inhibition of TNF Release Mean ± SEM,LPS-induced TNFα release; oral dose 0.01 mg/kg,43 ± 7%
same,% of Inhibition of TNF Release Mean ± SEM,LPS-induced TNFα release; oral dose 0.1 mg/kg,63 ± 3%
same,% of Inhibition of TNF Release Mean ± SEM,LPS-induced TNFα release; oral dose 1 mg/kg,68 ± 3%
same,% of Inhibition of TNF Release Mean ± SEM,LPS-induced TNFα release; oral dose 10 mg/kg,83 ± 3%
same,percentage of protection (gastric ulceration),[2]; 10 mg/kg administered orally,65%
same,Ulceration scores,[2]; aspirin 150 mg/kg oral gavage,decreased in a dose-dependent manner
same,"improved clinical score, increase compared to non-treated animals",[3],40%
same,"increased colon weight/length, increase compared to non-treated animals",[3],36%
same,inhibition of loss of body-weight compared to non-treated animals,[3],39%
